Test results from paper PMC12040169 (PLOS Biology, 2025).

Assay: in vitro
Conditions: human, hela cells, % viability

Cc1ccc(NC(=O)c2cnc3scc(C)n3c2=O)cc1C [CBK287461]
viability at 28.5 h, 10 µM: 108%

CCOC(=O)c1ccc(N2C(=O)CC(N3CCN(c4cccc(OC)c4)CC3)C2=O)cc1 (stereo not shown) [CBK265396]
viability at 28.5 h, 10 µM: 101%

O=C(Nc1nc2c(s1)CCCC2)c1ccccc1 [CBK287326]
viability at 28.5 h, 10 µM: 82.9%

N#CCCN(Cc1ccco1)C(=O)c1ccc(NC2CC2)nc1 [CBK304922]
viability at 28.5 h, 10 µM: 88.2%

CCOc1ccc(-c2nc(N)ncc2Oc2ccc(OC)cc2)c(O)c1 [CBK288105]
viability at 28.5 h, 10 µM: 101%

O=C(COc1ccccc1[N+](=O)[O-])Nc1ccc(Cl)c(-c2nc3ncccc3o2)c1 [CBK268811]
viability at 28.5 h, 10 µM: 88.8%

Cc1cc(C)n(CC(C)NC(=O)N2CCC(Oc3cccnc3)C2)n1 (stereo not shown) [CBK305342]
viability at 28.5 h, 10 µM: 92.1%

COC(=O)[C@@H](C)NC(=O)[C@H]1CN(C(=O)c2cccnc2)CCN1C(=O)NC1CCCCC1 [CBK289632]
viability at 28.5 h, 10 µM: 86%

COc1ncc(-c2nccnc2OCc2ccccc2)c(OC)n1 [CBK106748]
viability at 28.5 h, 10 µM: 108%

O=C(Nc1nnc(-c2ccc3c(c2)OCCO3)o1)c1ccc2c(c1)OCCO2 [CBK287403]
viability at 28.5 h, 10 µM: 84.5%

Cc1cn(CC(=O)N2CCN(c3ncccn3)CC2)c(=O)[nH]c1=O [CBK144513]
viability at 28.5 h, 10 µM: 105%

Cc1nnc(SCC(=O)NCc2c(C)c(Cl)cc(C(C)C)c2O)s1 [CBK269662]
viability at 28.5 h, 10 µM: 86.1%

O=C(Nc1ccc2c(c1)OCO2)c1ccc(-c2ccccc2)nc1NCCc1ccccn1 [CBK076574]
viability at 28.5 h, 10 µM: 102%

CN1CCN(c2c(C(=O)O)cc([N+](=O)[O-])cc2[N+](=O)[O-])CC1 [CBK261519]
viability at 28.5 h, 10 µM: 100%

CCCCn1c(SCC(=O)N(C)Cc2cnn(-c3ccccc3)c2)n[nH]c1=O [CBK296732]
viability at 28.5 h, 10 µM: 106%

S=c1nc(-c2ccccc2)n(-c2ccccc2)[nH]1 [CBK288474]
viability at 28.5 h, 10 µM: 103%

O=C(CC1c2ccccc2Oc2ccccc21)Nc1ccc(Cc2ccncc2)cc1 [CBK263271]
viability at 28.5 h, 10 µM: 91.6%

CCOC(=O)C1(c2ccccc2)CCN(C(=O)CCC(=O)OC)CC1 [CBK132198]
viability at 28.5 h, 10 µM (bulk resorufin, single well): 79.8%

Cc1ccc(Cc2cnc(NC(=O)C3CNC(=O)N3)s2)cc1F (stereo not shown) [CBK305919]
viability at 28.5 h, 10 µM: 97.8%

O=c1[nH]c(/C=C\c2cccc(OCCOc3ccccc3)c2)c([N+](=O)[O-])c(=O)[nH]1 [CBK266840]
viability at 28.5 h, 10 µM: 105%

O=C1Cc2c(ccc3ccccc23)C2(CCN(CCCC(F)(F)F)CC2)N1 [CBK039912]
viability at 28.5 h, 10 µM: 89.6%

COc1ccc(Cc2nc(C3CC3)n(CC(F)(F)F)n2)cc1 [CBK307686]
viability at 28.5 h, 10 µM: 94.9%

CSCCC(=O)N1CCC2(CCN(C(=O)c3cc(F)c(F)cc3F)C2)C1 (stereo not shown) [CBK131397]
viability at 28.5 h, 10 µM: 99.5%

O=C(O)CCc1nc2ccccc2s1 [CBK264071]
viability at 28.5 h, 10 µM: 115%

O=C(CCn1c(=O)oc2ccccc21)Nc1ccncc1 [CBK287466]
viability at 28.5 h, 10 µM: 92.5%

CN1C(=O)COc2ccccc2C/C=C/C[C@@H]2[C@H]1CCCN2C(=O)CCCNc1ncccn1 [CBK292168]
viability at 28.5 h, 10 µM: 112%

COc1ccc(F)cc1-c1cccc(CC2(C(=O)NCCc3ccccc3)CCOCC2)c1 [CBK285562]
viability at 28.5 h, 10 µM: 84.5%

O=C(CCS(=O)(=O)Cc1ccccc1)Nc1cc(C(F)(F)F)ccc1Cl [CBK268399]
viability at 28.5 h, 10 µM: 108%

COc1ccccc1C(=O)N1CCC(Cc2cccc(-c3cccs3)c2)(C(N)=O)CC1 [CBK285742]
viability at 28.5 h, 10 µM: 99.8%

C[C@@H]1C(=O)O[C@H]2[C@H]1CC[C@@]1(C)Cc3sc(NC(=O)CCC(=O)O)nc3[C@@H](C)[C@H]21 [CBK289429]
viability at 28.5 h, 10 µM: 98.7%

COc1cccc(C(=O)Nc2cnn(CCCC(=O)O)c2)c1 [CBK269879]
viability at 28.5 h, 10 µM: 89.6%

CCN1CCC(CC(=O)N2CCc3[nH]c4ccccc4c3C2)CC1 [CBK281846]
viability at 28.5 h, 10 µM: 86.5%

COc1ccc(/C=C/C(=O)NCc2ccc(S(N)(=O)=O)cc2)cc1OC [CBK265483]
viability at 28.5 h, 10 µM: 91%

CCOC(=O)c1sc(-c2cccc(C(F)(F)F)c2)nc1O [CBK075064]
viability at 28.5 h, 10 µM: 92%

Nc1nccn(CCOc2cc(F)c(F)cc2F)c1=O [CBK138204T]
viability at 28.5 h, 10 µM: 92.6%

Cc1nc(Cc2nc(-c3ccc4c(c3)CCCN4S(C)(=O)=O)cs2)cs1 [CBK304542]
viability at 28.5 h, 10 µM: 97.3%

CCOC(=O)N1CCC(Nc2nc3ccccc3nc2OCc2cc(C)on2)CC1 [CBK171825]
viability at 28.5 h, 10 µM: 89.2%

O=C(O)CC(C(=O)Nc1ccccc1)N1CCOCC1 (stereo not shown) [CBK287182]
viability at 28.5 h, 10 µM: 94.8%

COc1cccc2c1cc(C(=O)NCCn1ccnc1C)n2C [CBK283267]
viability at 28.5 h, 10 µM: 101%

CC(Cn1cccn1)C(=O)Nc1cccc(N2CCCC2)c1 (stereo not shown) [CBK283249]
viability at 28.5 h, 10 µM: 87.1%

CC(=O)Nc1ccc2nc(Nc3nc4c(F)cccc4s3)sc2c1 [CBK287475]
viability at 28.5 h, 10 µM: 89.8%

CCc1ccc(/C=N/N2CCN(Cc3cccc4ccccc34)CC2)cc1 [CBK262986]
viability at 28.5 h, 10 µM: 104%

S=C(NCCc1ccccn1)NCCN1CCOCC1 [CBK268296]
viability at 28.5 h, 10 µM: 101%

O=C(O)c1ccccc1-c1ccccc1C(=O)Nc1ccccc1-c1ccccc1 [CBK262843]
viability at 28.5 h, 10 µM: 84.4%

Cc1oc(C2CC2)cc1C(=O)N1CCn2c(nnc2C2CC2)C1 [CBK283687]
viability at 28.5 h, 10 µM: 94.9%

Cc1c(C(=O)O)sc2ncn(CCOc3ccc(Cl)cc3)c(=O)c12 [CBK286808]
viability at 28.5 h, 10 µM: 88.5%

Cc1ccc(-c2noc(CN(C(=O)c3ccc(Br)o3)C(C)C)n2)cc1 [CBK269440]
viability at 28.5 h, 10 µM: 83.2%

CCC(C)NC(=O)C1CCC(=O)N1Cc1ccc(C)cc1 (stereo not shown) [CBK294470]
viability at 28.5 h, 10 µM: 90%

O=C(O)c1cc(NS(=O)(=O)c2ccc3c(c2)OCCCO3)ccc1F [CBK296731]
viability at 28.5 h, 10 µM: 104%

CCOC(=O)c1[nH]c2ccccc2c1NS(=O)(=O)c1cccc(Cl)c1C [CBK047423]
viability at 28.5 h, 10 µM: 88.9%

O=C(c1cnc2ccccc2c1)N1CCc2ccccc21 [CBK200284]
viability at 28.5 h, 10 µM: 77.7%

Cc1nn(C)c(C)c1NC(=O)COc1ccc2c(c1)CCCC2=O [CBK304963]
viability at 28.5 h, 10 µM: 98.5%

CCC1CCCCN1Cc1nc2c(c(=O)n(C)c(=O)n2C)n1CCOC (stereo not shown) [CBK305912]
viability at 28.5 h, 10 µM: 104%

COc1ccc(-c2ccc(CCC(=O)O)n2NC(N)=S)cc1 [CBK266018]
viability at 28.5 h, 10 µM: 102%

O=C(CC1CC1)N1CCCC2(CCN(C(=O)c3cc(F)c(F)cc3F)C2)C1 (stereo not shown) [CBK131531]
viability at 28.5 h, 10 µM: 96.7%

Cc1cccc2sc(NC(=O)CCCCCNC(N)=O)nc12 [CBK296689]
viability at 28.5 h, 10 µM: 106%

CCCC/C=C/c1cncc(N2CCN(c3ccccn3)CC2)n1 [CBK037276]
viability at 28.5 h, 10 µM: 117%

O=C1NC2(CCNCC2)Oc2ccc(-c3cccc4ncccc34)cc21 [CBK083775T]
viability at 28.5 h, 10 µM: 95.3%

Cc1cccc(CN2CCC(NC(=O)Cn3cnnn3)CC2)c1 [CBK305649]
viability at 28.5 h, 10 µM: 95.9%

COCCN1C(=O)C2(CC(=O)N(CC3CCCCC3)C2=O)c2cc(OC)ccc21 (stereo not shown) [CBK075166]
viability at 28.5 h, 10 µM: 90%

Cc1ccc(S(=O)(=O)NC(=O)N(Cc2ccccc2)Cc2ccco2)cc1 [CBK269524]
viability at 28.5 h, 10 µM: 93%

O=C(c1nccs1)C1CCN(C(=O)Cc2ccccc2Cl)CC1 [CBK284162]
viability at 28.5 h, 10 µM: 87.4%

COc1ccc(C2(C(=O)N3CCN(C)CC3)CC2)cc1 [CBK149837]
viability at 28.5 h, 10 µM: 86.3%

CC(=O)c1ccc(-c2nccnc2N2CCCC2CO)s1 (stereo not shown) [CBK037483]
viability at 28.5 h, 10 µM: 113%

NS(=O)(=O)c1ccc(NC(=S)NC(=O)/C=C/c2ccc([N+](=O)[O-])cc2)cc1 [CBK262176]
viability at 28.5 h, 10 µM: 99.2%

CCN(Cc1ccncc1)C(=O)NCc1ccc(F)cc1 [CBK155146]
viability at 28.5 h, 10 µM: 96.4%

CCCN1C(=O)COc2ccc(-c3noc(-c4ccccn4)n3)cc21 [CBK288596]
viability at 28.5 h, 10 µM: 92.1%

CCN(CC)C(=O)CNS(=O)(=O)c1ccc(C)cc1 [CBK034491]
viability at 28.5 h, 10 µM: 103%

C=CCn1c(Cc2csc(NC(=O)c3cccc([N+](=O)[O-])c3)n2)n[nH]c1=S [CBK295339]
viability at 28.5 h, 10 µM: 106%

CC(=O)c1ccc(S(=O)(=O)NCC2CC2)cc1 [CBK044440]
viability at 28.5 h, 10 µM: 100%

C=C(C)Cn1c(Cc2ccccc2)nnc1SCC(C)C [CBK200082]
viability at 28.5 h, 10 µM: 102%

NCCNc1ccc([N+](=O)[O-])c(NCc2ccccc2)c1 [CBK262757C]
viability at 28.5 h, 10 µM: 83.7%

Cc1ccc(S(=O)(=O)N(C)C)cc1NC(=O)C12CCC(C)(C(=O)C1)C2(C)C (stereo not shown) [CBK266551]
viability at 28.5 h, 10 µM: 108%

CC(c1ccc(F)c(F)c1)N(C)C(=O)Cn1cnc2c(c1=O)CCC2 (stereo not shown) [CBK306291]
viability at 28.5 h, 10 µM: 88.6%

COc1ccc(-c2ccc(Nc3cccc(N(C)C)c3)nc2)cc1OC [CBK037606]
viability at 28.5 h, 10 µM: 90%

O=S(=O)(Nc1nnc(C(F)(F)F)s1)c1ccc(Br)cc1 [CBK200047]
viability at 28.5 h, 10 µM: 89.6%

Cc1ccc(Cl)cc1N1CCN(S(=O)(=O)N(C)C)CC1 [CBK270284]
viability at 28.5 h, 10 µM: 101%

Cc1cc2c(s1)c1cnn(Cc3ccncc3)c(=O)c1n2C [CBK284188]
viability at 28.5 h, 10 µM: 86.4%

COC(=O)c1ccc(S(=O)(=O)C(F)(F)F)cc1N [CBK018172]
viability at 28.5 h, 10 µM: 114%

O=C1NN(c2cccc(Cl)c2)C(=O)/C1=C\c1ccc(-c2ccc3c(c2)C(=O)NC3=O)o1 [CBK262970]
viability at 28.5 h, 10 µM: 93.4%

O=C1Nc2ccc(S(=O)(=O)NCC(O)c3ccc([N+](=O)[O-])cc3)c3cccc1c23 (stereo not shown) [CBK266745]
viability at 28.5 h, 10 µM: 88.1%

CCNC1(Cc2cc(C(=O)N3CCCCC3)on2)COC1 [CBK289671]
viability at 28.5 h, 10 µM: 84.2%

NC(=O)CN1CC2(CCN(CC3COc4ccccc4O3)CC2)c2ccccc21 (stereo not shown) [CBK143960]
viability at 28.5 h, 10 µM: 89.4%

C=CCn1c(SCC(=O)Nc2cccc(C(F)(F)F)c2)nnc1C12CC3CC(CC(C3)C1)C2 [CBK266054]
viability at 28.5 h, 10 µM: 105%

Cc1ccc(S(=O)(=O)/N=C(/NCc2ccc(Cl)cc2)Nc2nc(C)cc(C)n2)cc1 [CBK263785]
viability at 28.5 h, 10 µM: 102%

COc1cccc(-c2ccc(C(=O)Nc3ccc4c(c3)OCO4)c(N3CCOCC3)n2)c1 [CBK076509]
viability at 28.5 h, 10 µM: 93.5%

CN(C)c1ccc(NC(=O)CC2Nc3ccccc3NC2=O)cc1 (stereo not shown) [CBK262765]
viability at 28.5 h, 10 µM: 87.1%

CCOC(=O)c1cnn2c(O)cc(CN3CCc4ccccc4C3)nc12 [CBK305679]
viability at 28.5 h, 10 µM: 97.2%
